How the values were obtained:
[1] = Inhibition of Plasmodium falciparum DHFR expressed in Escherichia coli BL21 using DHF as substrate by spectrophotometric analysis
[2] = Inhibition of Plasmodium falciparum DHFR […] mutant expressed in Escherichia coli BL21 using DHF as substrate by spectrophotometric analysis
[3] = Inhibition of Plasmodium falciparum DHFR N51I/C59R/S108N mutant expressed in Escherichia coli BL21 using DHF as substrate by spectrophotometric analysis
[4] = Therapeutic index, ratio of IC50 for African green monkey Vero cells to IC50 for Plasmodium falciparum V1/S harboring DHFR N51I/C59R/S108N/I164L mutant; format: toxicity; conditions: read-out: Ratio IC50
Plasmodium falciparum [5] = assay: Antimalarial activity against Plasmodium falciparum W2 harboring DHFR N51I/C59R/S108N mutant infected in human erythrocytes assessed as reduction in [3H]-hypoxanthine incorporation pretreated for 20 hrs followed by [3H]-hypoxanthine addition measured after 20 hrs by radioactivity method; format: functional, organism-based; conditions: W2, Erythrocyte
Plasmodium falciparum [6] = assay: Antimalarial activity against Plasmodium falciparum TM4/8.2 infected in human erythrocytes assessed as reduction in [3H]-hypoxanthine incorporation pretreated for 20 hrs followed by [3H]-hypoxanthine addition measured after 20 hrs by radioactivity method; format: functional, organism-based
[7] = Inhibition of Plasmodium falciparum DHFR C59R/S108N/I164L mutant expressed in Escherichia coli BL21 using DHF as substrate by spectrophotometric analysis
[8] = tested on: DHFR (human against Plasmodium falciparum DHFR); assay: Selectivity index, ratio of Ki for human DHFR expressed in Escherichia coli BL21 to Ki for Plasmodium falciparum DHFR expressed in Escherichia coli BL21; format: toxicity; conditions: read-out: Ratio Ki
Plasmodium falciparum [9] = assay: Antimalarial activity against Plasmodium falciparum T9/94 RC17 harboring DHFR A16V/S108T mutant infected in human erythrocytes assessed as reduction in [3H]-hypoxanthine incorporation pretreated for 20 hrs followed by [3H]-hypoxanthine addition measured after 20 hrs by radioactivity method; format: functional, organism-based; conditions: T9/94 RC17, Erythrocyte
Plasmodium falciparum [10] = assay: Antimalarial activity against Plasmodium falciparum V1/S harboring DHFR N51I/C59R/S108N/I164L mutant infected in human erythrocytes assessed as reduction in [3H]-hypoxanthine incorporation pretreated for 20 hrs followed by [3H]-hypoxanthine addition measured after 20 hrs by radioactivity method; format: functional, organism-based; conditions: Erythrocyte
[11] = Therapeutic index, ratio of IC50 for African green monkey Vero cells to IC50 for Plasmodium falciparum K1CB1 harboring DHFR […] mutant; format: toxicity; conditions: read-out: Ratio IC50
[12] = tested on: DHFR (human against Plasmodium falciparum DHFR double mutant); assay: Selectivity index, ratio of Ki for human DHFR expressed in Escherichia coli BL21 to Ki for Plasmodium falciparum DHFR double mutant expressed in Escherichia coli BL21; format: toxicity; conditions: read-out: Ratio Ki
Plasmodium falciparum [13] = assay: Antimalarial activity against Plasmodium falciparum CsI-2 harboring DHFR C59R/S108N/I164L mutant infected in human erythrocytes assessed as reduction in [3H]-hypoxanthine incorporation pretreated for 20 hrs followed by [3H]-hypoxanthine addition measured after 20 hrs by radioactivity method; format: functional, organism-based; conditions: CsI-2, Erythrocyte
[14] = Inhibition of Plasmodium falciparum DHFR N51I/C59R/S108N/I164L mutant expressed in Escherichia coli BL21 using DHF as substrate by spectrophotometric analysis
[15] = Therapeutic index, ratio of IC50 for African green monkey Vero cells to IC50 for Plasmodium falciparum TM4/8.2; format: toxicity; conditions: against Plasmodium falciparum TM4/8.2, read-out: Ratio IC50
[16] = Inhibition of Plasmodium falciparum DHFR A16V/S108T mutant expressed in Escherichia coli BL21 using DHF as substrate by spectrophotometric analysis
[17] = tested on: DHFR (human against Plasmodium falciparum DHFR N51I/C59R/S108N/I164L mutant); assay: Selectivity index, ratio of Ki for human DHFR expressed in Escherichia coli BL21 to Ki for Plasmodium falciparum DHFR N51I/C59R/S108N/I164L mutant expressed in Escherichia coli BL21; format: toxicity; conditions: read-out: Ratio Ki
Plasmodium falciparum [18] = assay: Antimalarial activity against Plasmodium falciparum K1CB1 harboring DHFR […] mutant infected in human erythrocytes assessed as reduction in [3H]-hypoxanthine incorporation pretreated for 20 hrs followed by [3H]-hypoxanthine addition measured after 20 hrs by radioactivity method; format: functional, organism-based; conditions: K1CB1, Erythrocyte
Vero = assay: Cytotoxicity against African green monkey Vero cells assessed as reduction in cell viability incubated for 72 hrs by SRB assay; format: cell-based; conditions: Chlorocebus sabaeus
[19] = Inhibition of Plasmodium falciparum DHFR using DHF as substrate by spectrophotometric analysis

Compound	Ki [1]	Ki [2]	Ki [3]	selectivity ratio [4]	IC50 (Plasmodium falciparum [5])	IC50 (Plasmodium falciparum [6])	Ki [7]	selectivity ratio [8]	IC50 (Plasmodium falciparum [9])	IC50 (Plasmodium falciparum [10])	selectivity ratio [11]	selectivity ratio [12]	IC50 (Plasmodium falciparum [13])	Ki [14]	selectivity ratio [15]	Ki [16]	selectivity ratio [17]	IC50 (Plasmodium falciparum [18])	IC50 (Vero)	Ki [19]
CC1(C)N=C(N)N=C(N)N1OCCCOc1cccc(Cl)c1Cl	0.6 nM	1 nM	0.7 nM	1870	0.82 nM	0.35 nM	1.4 nM	39	0.21 nM	5.2 nM	5110	24	3.9 nM	1.1 nM	27700	1.3 nM	21	1.9 nM	9.71 µM	–
CC1(C)N=C(N)N=C(N)N1OCCCOc1cc(Cl)c(Cl)cc1Cl	–	0.6 nM	1.1 nM	> 56	4.2 nM	0.57 nM	0.4 nM	29	0.34 nM	18 nM	> 435	24	3.8 nM	1.9 nM	> 1750	–	8	2.3 nM	> 1 µM	0.5 nM
CC1(C)N=C(N)N=C(N)N1OCCCCc1ccccc1	0.3 nM	0.7 nM	0.7 nM	46	44 nM	33 nM	2.2 nM	139	3.7 nM	590 nM	874	60	46 nM	3.7 nM	821	2 nM	11	31 nM	27.1 µM	–
CC1N=C(N)N=C(N)N1OCCCOc1cc(Cl)c(Cl)cc1Cl (stereo unspecified)	–	0.5 nM	0.4 nM	153	35 nM	2.3 nM	0.5 nM	79	0.32 nM	300 nM	2420	47	48 nM	0.6 nM	20000	–	40	19 nM	46 µM	0.3 nM
CC1(C)N=C(N)N=C(N)N1OCCCOc1ccccc1	0.7 nM	1 nM	0.8 nM	628	5.9 nM	0.37 nM	1.4 nM	52	0.59 nM	53 nM	6170	36	32 nM	1.9 nM	90000	1.5 nM	19	5.4 nM	33.3 µM	–
CC1(C)N=C(N)N=C(N)N1OCCCNc1ccc(Cl)c(Cl)c1	1.2 nM	0.8 nM	0.9 nM	> 68	58 nM	4.5 nM	1.4 nM	40	17 nM	740 nM	> 11100	61	390 nM	5.1 nM	> 11100	3.7 nM	9	45 nM	> 50 µM	–
CC1(C)N=C(N)N=C(N)N1OCCCSc1ccc(Cl)cc1	0.6 nM	0.9 nM	0.7 nM	70	5.4 nM	0.6 nM	0.9 nM	40	1.8 nM	260 nM	2970	26	37 nM	0.8 nM	30200	3.1 nM	30	6.1 nM	18.1 µM	–
CC1(C)N=C(N)N=C(N)N1OCCCSc1ccccc1Cl	0.6 nM	1.1 nM	0.7 nM	332	3.3 nM	0.48 nM	0.9 nM	35	0.73 nM	44 nM	4060	19	4.4 nM	1 nM	30400	1.9 nM	21	3.6 nM	14.6 µM	–
NC1=NC(c2ccccc2)N(OCCCOc2cc(Cl)c(Cl)cc2Cl)C(N)=N1 (stereo unspecified)	–	1.9 nM	1.6 nM	52	60 nM	5.1 nM	0.3 nM	242	3.2 nM	480 nM	570	76	340 nM	0.7 nM	4920	–	207	44 nM	25.1 µM	0.6 nM
CC1(C)NC(N)=NC(=N)N1OCCCSc1ccccc1	0.5 nM	0.8 nM	0.3 nM	997	9.9 nM	0.52 nM	0.4 nM	58	0.58 nM	64 nM	13300	36	39 nM	–	123000	1 nM	58	4.8 nM	63.8 µM	–
